Experimental findings from patent US5948792A, “Fluorine-containing 1,4-disubstituted piperidine derivatives” (Banyu Pharmaceutical Co., Ltd., priority 1996, dated 1999) are described below.

The target of one experiment is T1, Muscarinic M2 receptor (Homo sapiens, UniProt P08172).
T1 construct: purchased Receptor Biology, Inc; host or cells: CHO cells (membranes)
T1 sequence (P08172 1-466): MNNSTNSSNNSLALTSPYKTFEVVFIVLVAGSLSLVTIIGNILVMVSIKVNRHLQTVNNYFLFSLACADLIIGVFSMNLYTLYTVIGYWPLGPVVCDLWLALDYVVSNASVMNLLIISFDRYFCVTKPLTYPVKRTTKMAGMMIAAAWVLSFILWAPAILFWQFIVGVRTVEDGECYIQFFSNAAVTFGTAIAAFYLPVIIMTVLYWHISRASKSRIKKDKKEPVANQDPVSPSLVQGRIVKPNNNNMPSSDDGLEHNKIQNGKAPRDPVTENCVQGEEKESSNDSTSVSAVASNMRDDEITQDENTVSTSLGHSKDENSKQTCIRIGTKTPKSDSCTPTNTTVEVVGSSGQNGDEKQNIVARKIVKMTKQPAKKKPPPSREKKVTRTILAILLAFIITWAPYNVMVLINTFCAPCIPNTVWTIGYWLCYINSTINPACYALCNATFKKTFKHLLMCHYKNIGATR
The experiment in a line: Inhibition of binding of [3H]-N-methylscopolamine to muscarinic M2 receptor. The following applies: CHO cell membranes expressing cloned human receptor; 0.2 nM [3H]-N-methylscopolamine, pH 7.4, 2 hours, 25° C; read-out: Ki M2 (inhibitory effects on binding to muscarinic M2 receptor). As to the method: (§1) Tests on Inhibition of Binding to Muscarinic Receptors
(§2) These tests were performed according to a modification of the method of Hargreaves et al. (Br. J. Pharmacol. 107: 494-501, 1992). Membranes from CHO cells expressing cloned human m1-m5 (Receptor Biology, Inc.) were incubated with 0.2 nM [^3 H]-N-methylscopolamine and each a compound of the present invention to be tested in 0.5 ml of 50 mM Tris-HCl-10 mM MgCl2 -1 mM EDTA (pH 7.4) for 2 hours at 25° C. Free and membrane-bound [^3 H]-N-methylscopolamine were separated by filtration over glass filters (UniFilter-GF/C; Packard Instruments Co., Inc.) using cell harvester (Filtermate™ 196; Packard Instruments Co., Inc.). Then the filter was washed four times with 1 ml of ice-cold Tris-HCl (pH 7.4) and dried at 50° C. After adding a scintillator (Microscinti 0; Packard Instruments Co., Inc.), the radioactivity was counted by a liquid scintillation counter (TopCount™; Packard Instruments Co., Inc.). Non-specific binding was measured in the presence of 1 μM N-methylscopolamine.

The target of experiment [1] is T2, Muscarinic M3 receptor (Homo sapiens, UniProt P20309).
T2 construct: purchased Receptor Biology, Inc; host or cells: CHO cells (membranes)
The experiment in a line: Inhibition of binding of [3H]-N-methylscopolamine to muscarinic M3 receptor. As to the method: as §1, §2

The target of experiment [2] is T3, Muscarinic M3 Receptor (Rattus norvegicus, UniProt P08483).
T3 construct: male rats of the Sprague-Dawley strain; from tissue; host or cells: airways of living male Sprague-Dawley rats (in vivo)
The experiment in a line: Bronchodilation in rats (i.v.), inhibition of acetylcholine-induced increase in airway resistance. Format: in vivo. Conditions: iv, 5 min, acetylcholine 50 μg/kg i.v. 5 minutes after test compound, read-out: Inhibition of Airway Contraction ED50 iv. As to the method:
(§3) Tests for Antagonism Against Muscarinic M3 Receptor (in vivo)
1-A) Tests for Bronchodilation in Rats (i.v.).
Eight- to eleven-weeks-old male rats of the Sprague-Dawley strain, weighing 380-420 g, were anesthetized with urethane (750 mg/kg. i.p.) and α-chloralose (37.5 mg/kg, i.p.). The bronchus of each rat was intubated, and the right jugular vein was cannulated for drug administration. […] To evoke an increase in airway resistance, acetylcholine (50 μg/kg, i.v.) was administered to the animals. The acetylcholine-induced airway resistance increase was measured 5 minutes before and 5 minutes after administration of test compound, and the ratio of the airway resistance of the latter to the former was calculated. In controls, isotonic sodium chloride solution was used in place of the test compounds and otherwise identical procedures were repeated, the calculated ratio being set to be 100%.

Experiment [3] deals with T3, Muscarinic M3 Receptor. The experiment in a line: Bronchodilation in rats (p.o.), inhibition of acetylcholine-induced increase in airway resistance. Conditions: po, 1 h, acetylcholine 50 μg/kg i.v. 60 minutes after test compound, read-out: Inhibition of Airway Contraction ED50 po. Format: in vivo. As to the method: as §3
1-B) Tests for Bronchodilation in Rats (p.o.)
Eight- to eleven-weeks-old male rats of Sprague-Dawley strain weighing 380-420 g were orally administered with a test compound. The rats were treated in the identical manner as in the i.v. test, starting 30 minutes after the administration, and their airway resistance values were measured. The acetylcholine-(50 μg/kg, i.v.) induced airway resistance increase were measured 60 minutes after the administration of test compounds. In controls, isotonic sodium chloride solution was used in place of the test compounds and otherwise identical procedures were repeated, the ratio between the two airway resistance values whereby being set to be 100%.

Experiment [4] relates to Muscarinic M3 Receptor. As to the kind of experiment: Bronchodilation in dogs (p.o.), methacholine provocation test. Conditions: beagle dogs, 1 mg/kg p.o., 4 hours after administration. Format: in vivo, dog. The method, then: as §3
2) Tests for Bronchodilation in Dogs (p.o.)
Twelve- to twenty-four-months-old male beagle dogs (weighing 10-15 kg) were anesthetized with pentobarbital (30 mg/kg, i.v.) and intubated in their bronchus. Their airway sensitivity to inhaled methacholine were measured at least twice at two-weeks interval, and the dogs showing a reproducible methacholine reaction threshold values^1) ware selected. To those dogs whose methacholine reaction threshold value had been confirmed, the test compounds were orally administered (1 mg/kg). Four hours after the administration, the methacholine provocation test was conducted, and then the methacholine reaction threshold value^2) after administration of the test compound was obtained.
The bronchodilator activity of the test compound was determined following equation: [formula]
The methacholine provocation test was conducted using Astograph TCK-6100H Model (Chest). Methacholine chloride was used as bronchoconstritor, which was diluted with isotonic sodium chloride solution in 10-grade concentration levels starting from 40,000 μg/ml, as 20,000, 10,000, 5,000, 2,500, 1,250, 625, 312.5, 156 and 78 μg/ml. These methacholine aerosols were inhaled to the test animal each for 1 min, starting from the lowest concentration level, and respiration resistance was continuously recorded. The concentration level at which the respiration resistance reached twice the initial value was recorded as the methacholine threshold value.

One may read the Ki as the equilibrium dissociation constant of an inhibitor or competing ligand from its target. One may read the ED50 as the dose that gives a 50% effect, or the effect in half of the subjects.

T2 sequence (P20309 whole entry): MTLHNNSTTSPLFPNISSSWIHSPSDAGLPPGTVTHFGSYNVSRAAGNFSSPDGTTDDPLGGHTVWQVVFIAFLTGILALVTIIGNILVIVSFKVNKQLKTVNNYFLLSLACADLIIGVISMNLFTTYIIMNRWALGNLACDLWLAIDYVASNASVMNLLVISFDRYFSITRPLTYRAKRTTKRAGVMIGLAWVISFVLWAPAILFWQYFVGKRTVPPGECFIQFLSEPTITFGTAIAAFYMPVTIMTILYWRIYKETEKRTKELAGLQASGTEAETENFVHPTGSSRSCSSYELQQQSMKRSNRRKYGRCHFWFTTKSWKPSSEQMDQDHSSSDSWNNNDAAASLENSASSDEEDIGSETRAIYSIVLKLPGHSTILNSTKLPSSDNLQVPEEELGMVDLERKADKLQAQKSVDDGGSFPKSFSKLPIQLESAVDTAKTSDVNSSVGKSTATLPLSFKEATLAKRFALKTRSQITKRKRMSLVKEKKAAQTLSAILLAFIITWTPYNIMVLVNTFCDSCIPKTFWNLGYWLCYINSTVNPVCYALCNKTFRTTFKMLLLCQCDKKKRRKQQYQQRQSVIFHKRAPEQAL
T3 sequence (P08483 whole entry): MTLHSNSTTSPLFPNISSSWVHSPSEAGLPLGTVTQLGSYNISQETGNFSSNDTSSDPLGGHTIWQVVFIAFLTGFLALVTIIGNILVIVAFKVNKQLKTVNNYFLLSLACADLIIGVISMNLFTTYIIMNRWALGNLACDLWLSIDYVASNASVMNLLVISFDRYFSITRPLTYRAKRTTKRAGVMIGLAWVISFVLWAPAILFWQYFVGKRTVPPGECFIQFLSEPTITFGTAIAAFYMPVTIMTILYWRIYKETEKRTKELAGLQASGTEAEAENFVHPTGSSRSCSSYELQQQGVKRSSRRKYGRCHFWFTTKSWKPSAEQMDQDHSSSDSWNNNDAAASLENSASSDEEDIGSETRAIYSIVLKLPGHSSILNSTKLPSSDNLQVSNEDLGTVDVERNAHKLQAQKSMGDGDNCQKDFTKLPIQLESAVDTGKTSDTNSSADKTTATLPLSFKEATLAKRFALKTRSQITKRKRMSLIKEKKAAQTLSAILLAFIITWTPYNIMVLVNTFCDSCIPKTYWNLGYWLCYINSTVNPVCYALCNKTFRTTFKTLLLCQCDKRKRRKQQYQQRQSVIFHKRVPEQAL

Regarding `COc1cc(CN2CCC(NC(=O)[C@](O)(c3ccccc3)[C@@H]3CCC(F)(F)C3)CC2)ccc1N` [Example 26, (2R)-N-[1-(4-amino-3-methoxybenzyl)piperidin-4-yl]-2-[(1R)-3,3-difluorocyclopentyl]-2-hydroxy-2-phenylacetamide], the Ki turned out to be 24 µM at Muscarinic M2 receptor and 0.022 µM at Muscarinic M3 receptor [1] (CHO cell membranes expressing cloned human receptor, 0.2 nM [3H]-N-methylscopolamine, pH 7.4, 2 hours, 25° C, read-out: Ki M3 (inhibitory effects on binding to muscarinic M3 receptor)). In addition, the “M2/M3 (ratio of binding Ki)” value on Muscarinic M3 receptor [1] (selectivity ratio of Ki values, binding) came to 1100. Also, the results for the ED50 at Muscarinic M3 Receptor [2] and at Muscarinic M3 Receptor [3] were 0.37 mg/kg and 0.95 mg/kg, respectively. Also, the “Methacholine Inhalation-inducing Test shift value (after 4 hrs.)” value in the experiment on Muscarinic M3 Receptor [4] is recorded as more than 64.
